# Measurements published in PMC10386514, “Cyclodextrin’s Effect on Permeability and Partition of Nortriptyline Hydrochloride” (Pharmaceuticals, 2023).
# Counter-ions that a name gives are not always drawn. Like-named read-outs stand apart in the source and are kept apart here.
# Legend:
# [1] = 37 °C
# Method: The ∆logD parameter of Seiler was calculated for a single CD concentration in the aqueous phase, equal to 0.0115 M for both HP-β-CD and SBE-β-CD, as follows:(2) ΔlogD=logDappoct/buf−logDapphex/buf
# [2] = Source text: To this end, the phase distribution approach fully described in [17] was applied. […] It is evident that, in the presence of cyclodextrins, the distribution coefficient of the compound can be described by the following equation:(3) DappOrg/(buf+CD)=C2Org(drug)/C2buf(drug)+C2buf(drug•CD) where DappOrg/(buf+CD) is the distribution coefficient of the drug in the presence of CD, C2Org and C2buf are the drug concentrations in the organic and aqueous phases, respectively, and C2buf(drug•CD) is the concentration of the drug/cyclodextrin complex in the aqueous phase of the distribution system. As follows from Equation (3), the association constant of the complex can be derived from DappOrg/buf and DappOrg/(buf+CD) at specific CD concentrations using Equation (4). (4) DappOrg/(buf+CD)/DappOrg/buf=1+KC⋅CCD
# It can be performed by plotting the following dependence:(5) log(DappOrg/buf−DappOrg/(buf+CD)/DappOrg/buf)=log(KC)+α⋅log(CCD)
# [3] = epidermis (ref 18) vs PermeaPad, no CD
# [4] = cited from earlier work
# [5] = for distribution coefficient lower than that of AMT•HCl: AMT•HCl values from ref 14; for distribution coefficient higher at buffer pH of 6.8 than at pH of 4.0: no CD; for Dapp hex/buf / Dapp oct/buf / logDapp hex/buf / logDapp oct/buf: 37 °C
# Method: The apparent distribution coefficients of NTT•HCl ( DappOrg/buf ) in the 1-octanol/buffer ( Dappoct/buf ) and n-hexane/buffer ( Dapphex/buf ) systems were measured at 37 °C via the standard shake-flask method using mutually saturated organic and aqueous solvents, as reported in our earlier studies. The experimental procedure was partially modified in the case of cyclodextrins (both HP-β-CD and SBE-β-CD) in the aqueous phase of the distribution system. Following the respective literature, in the present study, we prepared 1-octanol or n-hexane saturated with a buffer and a buffer saturated with 1-octanol and n-hexane. Three cyclodextrin concentrations (0.0115 M, 0.025 M and 0.035 M) in the aqueous phase were introduced. For the 1-octanol/buffer distribution, the examined solution of NTT•HCl was prepared in 1-octanol saturated with a buffer (C ~ 2 × 10^−3 M), whereas for the n-hexane/buffer system, it was prepared in a buffer saturated with n-hexane (C ~ 2 × 10^−3 M). Taking into account the obtained values of NTT•HCl solubility in the organic solvents and aqueous buffers, equal volumes of the 1-octanolic and buffer phases were prepared, whereas the n-hexane/buffer ratio was 12:2. Two pH values of the aqueous phases were examined: a pH of 4.0 and a pH of 6.8, simulating different segments of the gastro-intestinal tract. The respective volumes of the phases were placed into glass vials and equilibrated in an air thermostat for 3 days at 37 °C. Then, the phases were separated after at least 6 h of storage. The concentrations in both phases were measured using a UV–Vis spectrophotometer (Cary-50, USA Cary-50 Varian, Palo Alto, CA, USA, Software Version 3.00 (339)) with the help of the calibration curves. Each distribution test was carried out at least three times.
# The distribution coefficients ( DappOrg/buf ) were determined, taking into account the compound concentrations in the organic ( C2Org ) and buffer ( C2buf ) phases and the volumes of the buffer ( Vbuf ) and organic ( VOrg ) phases:(1) DappOrg/buf=C2Org⋅V^buf/C2buf⋅V^Org
# [6] = RC vs PP, no CD
# Method: The permeability coefficients of NTT•HCl were determined in the absence and in the presence of cyclodextrins (HP-β-CD and SBE-β-CD) in the donor solution. A model artificial regenerated cellulose membrane MWCO 12–14 kDa (Standard Grade RC Dialysis Membrane, Flat Width 45 mm) (RC) or a biomimetic PermeaPad barrier (PHABIOC, Germany, www.permeapad.com (accessed on 1 February 2023)) (PP) were placed between the donor and receptor compartments of a vertical type Franz diffusion cell (PermeGear, Inc., Hellertown, PA, USA) with 7 mL/1 mL volumes for the donor and acceptor solutions. The cyclodextrin concentrations were 0.0115 M, 0.025 M and 0.035 M when the RC membrane was used and only 0.035 M in case of the PP barrier. Two different pH values (pH of 4.0 and pH of 6.8) were applied in the donor solution, whereas the receptor chamber was filled with a buffer with a pH of 7.4, modeling the compound’s diffusion to the blood plasma in all the experiments. […] Samples with a volume of 0.5 mL for the receptor solution were withdrawn every 30 min for 5 h and analyzed with a spectrophotometer (Spectramax 190; Molecular Devices Corporation, San Jose, CA, USA) in 96-well UV black plates (Costar, Washington, DC, USA) at a wavelength of 239 nm.
# The permeability coefficient was calculated using the NTT•HCl concentration in the donor solution (C0), as follows:(7) Papp=J/C0
# [7] = human epidermis, buffer pH of 7.4; cited from earlier work
# [8] = parameters: method as in doi:10.1016/j.molliq.2022.120801; settings: RC vs PP; cited from earlier work
structure (smiles),measurement,setting,value
"CNCCC=C1c2ccccc2CCc2ccccc21 [NTT•HCl, Nortriptyline hydrochloride]",∆logD,"[1]; pH 4.0, 0.0115 M HP-β-CD",1.82
same,∆logD,"[1]; pH 4.0, 0.0115 M SBE-β-CD",1.79
same,∆logD,"[1]; pH 4.0, no CD",2.85
same,∆logD,"[1]; pH 6.8, 0.0115 M HP-β-CD",2.48
same,∆logD,"[1]; pH 6.8, 0.0115 M SBE-β-CD",2.23
same,∆logD,"[1]; pH 6.8, no CD",2.76
same,"KC, association constant of the NTT•HCl/cyclodextrin complex","[2]; HP-β-CD, aqueous phase pH of 4.0, 37 °C",1.13 ± 0.02 M⁻¹
same,"KC, association constant of the NTT•HCl/cyclodextrin complex","[2]; HP-β-CD, aqueous phase pH of 6.8, 37 °C",2.01 ± 0.05 M⁻¹
same,"KC, association constant of the NTT•HCl/cyclodextrin complex","[2]; SBE-β-CD, aqueous phase pH of 4.0, 37 °C",1.14 ± 0.02 M⁻¹
same,"KC, association constant of the NTT•HCl/cyclodextrin complex","[2]; SBE-β-CD, aqueous phase pH of 6.8, 37 °C",2.24 ± 0.03 M⁻¹
same,greater resistance of the epidermis than that of the PermeaPad barrier,[3],67 fold
same,pKa,[4],9.23
same,distribution coefficient lower than that of AMT•HCl,[5]; 1-octanol/buffer pH of 4.0,7 fold
same,distribution coefficient lower than that of AMT•HCl,[5]; 1-octanol/buffer pH of 6.8,13 fold
same,distribution coefficient higher at buffer pH of 6.8 than at pH of 4.0,[5]; 1-octanol/buffer,1.33 fold
same,distribution coefficient higher at buffer pH of 6.8 than at pH of 4.0,[5]; n-hexane/buffer,1.61 fold
same,Dapp hex/buf,"[5]; pH 4.0, 0.0115 M HP-β-CD",(4.6 ± 0.1) × 10^−3
same,Dapp oct/buf,"[5]; pH 4.0, 0.0115 M HP-β-CD",0.299 ± 0.008
same,logDapp hex/buf,"[5]; pH 4.0, 0.0115 M HP-β-CD",−2.34
same,logDapp oct/buf,"[5]; pH 4.0, 0.0115 M HP-β-CD",−0.52
same,Dapp hex/buf,"[5]; pH 4.0, 0.0115 M SBE-β-CD",(3.3 ± 0.1) × 10^−3
same,Dapp oct/buf,"[5]; pH 4.0, 0.0115 M SBE-β-CD",0.204 ± 0.005
same,logDapp hex/buf,"[5]; pH 4.0, 0.0115 M SBE-β-CD",−2.48
same,logDapp oct/buf,"[5]; pH 4.0, 0.0115 M SBE-β-CD",−0.69
same,Dapp oct/buf,"[5]; pH 4.0, 0.025 M HP-β-CD",0.154 ± 0.003
same,logDapp oct/buf,"[5]; pH 4.0, 0.025 M HP-β-CD",−0.81
same,Dapp oct/buf,"[5]; pH 4.0, 0.025 M SBE-β-CD",0.086 ± 0.001
same,logDapp oct/buf,"[5]; pH 4.0, 0.025 M SBE-β-CD",−1.07
same,Dapp oct/buf,"[5]; pH 4.0, 0.035 M HP-β-CD",0.101 ± 0.001
same,logDapp oct/buf,"[5]; pH 4.0, 0.035 M HP-β-CD",−1.0
same,Dapp oct/buf,"[5]; pH 4.0, 0.035 M SBE-β-CD",0.013 ± 0.000
same,logDapp oct/buf,"[5]; pH 4.0, 0.035 M SBE-β-CD",−1.89
same,Dapp hex/buf,"[5]; pH 4.0, no CD",(5.6 ± 0.2) × 10^−3
same,Dapp oct/buf,"[5]; pH 4.0, no CD",4.159 ± 0.080
same,logDapp hex/buf,"[5]; pH 4.0, no CD",−2.23
same,logDapp oct/buf,"[5]; pH 4.0, no CD",0.62
same,Dapp hex/buf,"[5]; pH 6.8, 0.0115 M HP-β-CD",(8.7 ± 0.1) × 10^−3
same,Dapp oct/buf,"[5]; pH 6.8, 0.0115 M HP-β-CD",2.613 ± 0.022
same,logDapp hex/buf,"[5]; pH 6.8, 0.0115 M HP-β-CD",−2.06
same,logDapp oct/buf,"[5]; pH 6.8, 0.0115 M HP-β-CD",0.42
same,Dapp hex/buf,"[5]; pH 6.8, 0.0115 M SBE-β-CD",(8.6 ± 0.3) × 10^−3
same,Dapp oct/buf,"[5]; pH 6.8, 0.0115 M SBE-β-CD",1.443 ± 0.040
same,logDapp hex/buf,"[5]; pH 6.8, 0.0115 M SBE-β-CD",−2.07
same,logDapp oct/buf,"[5]; pH 6.8, 0.0115 M SBE-β-CD",0.16
same,Dapp oct/buf,"[5]; pH 6.8, 0.025 M HP-β-CD",1.993 ± 0.030
same,logDapp oct/buf,"[5]; pH 6.8, 0.025 M HP-β-CD",0.30
same,Dapp oct/buf,"[5]; pH 6.8, 0.025 M SBE-β-CD",0.364 ± 0.011
same,logDapp oct/buf,"[5]; pH 6.8, 0.025 M SBE-β-CD",−0.44
same,Dapp oct/buf,"[5]; pH 6.8, 0.035 M HP-β-CD",1.395 ± 0.025
same,logDapp oct/buf,"[5]; pH 6.8, 0.035 M HP-β-CD",0.15
same,Dapp oct/buf,"[5]; pH 6.8, 0.035 M SBE-β-CD",0.227 ± 0.006
same,logDapp oct/buf,"[5]; pH 6.8, 0.035 M SBE-β-CD",−0.64
same,Dapp hex/buf,"[5]; pH 6.8, no CD",(9.5 ± 0.2) × 10^−3
same,Dapp oct/buf,"[5]; pH 6.8, no CD",5.537 ± 0.111
same,logDapp hex/buf,"[5]; pH 6.8, no CD",−2.02
same,logDapp oct/buf,"[5]; pH 6.8, no CD",0.74
same,difference between the coefficients of permeability through the PP and RC,[6],1.6 fold
same,coefficient of permeability through epidermis,[7],0.36 × 10^−6
"CN(C)CCC=C1c2ccccc2CCc2ccccc21.Cl [AMT•HCl, amitryptiline hydrochloride]",difference between the coefficients of permeability through the PP and RC,[8],4.0 fold
